The values that follow come from patent publication US20240140938A1, “PREPARATION OF TETRAHYDROINDAZOLE DERIVATIVES AS NOVEL DIACYLGLYCERIDE O-ACYLTRANSFERASE 2 INHIBITORS” (MERCK SHARP & DOHME LLC, priority 2020, published 2024).

Structures are written as SMILES.

A word on the IC50: it is the concentration at which inhibition is half-maximal. A low value points to greater potency in that assay.

The target in the first test is human DGAT2 (hDGAT2) (Homo sapiens (Human), UniProt Q96PD7). In words: DGAT2 Enzymatic Activity Assay. In kind it is biochemical. The following applies: hDGAT2 Sf-9 membrane prep; 13C18-triolein product by LC/MS/MS; 25 μM diolein, 5 μM 13C oleoyl-CoA. The method, boiled down: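 Enzyme source was membrane fractions from Sf-9 cells infected with untagged hDGAT2 baculovirus. Reactions ran at room temperature, and product 13C18-triolein was quantified by LC/MS/MS against a 13C21-triolein internal standard. % inhibition was normalised to high and low controls, and IC50 derived from it.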
Sequence of human DGAT2 (hDGAT2) (Q96PD7 whole entry): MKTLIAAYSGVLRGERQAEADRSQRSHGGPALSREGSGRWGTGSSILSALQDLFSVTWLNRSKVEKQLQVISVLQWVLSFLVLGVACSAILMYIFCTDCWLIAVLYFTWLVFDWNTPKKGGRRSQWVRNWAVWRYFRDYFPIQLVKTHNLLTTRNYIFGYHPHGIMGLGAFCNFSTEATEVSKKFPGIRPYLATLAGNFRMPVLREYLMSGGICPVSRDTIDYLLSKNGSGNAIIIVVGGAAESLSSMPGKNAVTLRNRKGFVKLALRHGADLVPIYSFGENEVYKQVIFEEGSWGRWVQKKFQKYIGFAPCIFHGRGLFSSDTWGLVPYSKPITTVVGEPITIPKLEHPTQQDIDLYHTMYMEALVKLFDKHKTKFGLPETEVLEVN
Turning to `CC(C)n1nc(-c2cncc(OC(F)(F)C(F)F)c2)c2c1C[C@H](C(=O)N[C@@]1(C)CCS(=O)(=O)C1)CC2` [Example 105, (R)-1-isopropyl-N-((S)-3-methyl-1,1-dioxidotetrahydrothiophen-3-yl)-3-(5-(1,1,2,2-tetrafluoroethoxy)pyridin-3-yl)-4,5,6,7-tetrahydro-1H-indazole-6-carboxamide], it took 118 nM to reach half-maximal inhibition (IC50).
The same measure, in the same setting: with `CC(C)n1nc(-c2cncc(OC(F)(F)C(F)F)c2)c2c1C[C@H](C(=O)NC1(C)CCS(=O)(=O)CC1)CC2` [Example 106, (R)-1-isopropyl-N-(4-methyl-1,1-dioxidotetrahydro-2H-thiopyran-4-yl)-3-(5-(1,1,2,2-tetrafluoroethoxy)pyridin-3-yl)-4,5,6,7-tetrahydro-1H-indazole-6-carboxamide] the figure was 204 nM.
On to `CC1(NC(=O)[C@@H]2CCc3c(-c4cc(OC(F)F)ccc4F)nn(S(=O)(=O)C4CC4)c3C2)CS(=O)(=O)C1` [Example 116, (R)-1-(cyclopropylsulfonyl)-3-(5-(difluoromethoxy)-2-fluorophenyl)-N-(3-methyl-1,1-dioxidothietan-3-yl)-4,5,6,7-tetrahydro-1H-indazole-6-carboxamide], for which the IC50 is 68.1 nM. Compared with the last compound, the IC50 is about 3-fold lower.
On the same count and under the same terms, in the case of `CC(C)n1nc(-c2cc(OC(F)F)ccc2F)c2c1CC(C(=O)N[C@@]1(C)CCS(=O)(=O)C1)CO2` (stereo partly drawn) [Example 122, 3-(5-(difluoromethoxy)-2-fluorophenyl)-1-isopropyl-N-((S)-3-methyl-1,1-dioxidotetrahydrothiophen-3-yl)-1,5,6,7-tetrahydropyrano[3,2-c]pyrazole-6-carboxamide] it was 5.8 nM; in that of `CC(C)n1nc(-c2cc(OC(F)F)ccc2F)c2c1CC(C(=O)N[C@]1(C)CCS(=O)(=O)C1)CO2` (stereo partly drawn) [Example 123, 3-(5-(difluoromethoxy)-2-fluorophenyl)-1-isopropyl-N-((R)-3-methyl-1,1-dioxidotetrahydrothiophen-3-yl)-1,5,6,7-tetrahydropyrano[3,2-c]pyrazole-6-carboxamide], 24.3 nM; in that of `CC(C)n1nc(-c2cccc(C3CC3)c2)c2c1C[C@H](C(=O)NC1(C)CS(=O)(=O)C1)CO2` [Example 125, (S)-3-(3-cyclopropylphenyl)-1-isopropyl-N-(3-methyl-1,1-dioxidothietan-3-yl)-1,5,6,7-tetrahydropyrano[3,2-c]pyrazole-6-carboxamide], 22.2 nM.
Same read-out and setting: with `CC(C)n1nc(-c2cc(OC(F)F)ccc2F)c2c1C[C@H](C(=O)NC1(C)CS(=O)(=O)C1)OC2` [Example 127, (R)-3-(5-(difluoromethoxy)-2-fluorophenyl)-1-isopropyl-N-(3-methyl-1,1-dioxidothietan-3-yl)-1,4,6,7-tetrahydropyrano[4,3-c]pyrazole-6-carboxamide] the figure was 343 nM.
The same measure, in the same setting: with `CC(C)n1nc(-c2cc(C3CC3)ccc2F)c2c1C[C@H](C(=O)NC1(C)CS(=O)(=O)C1)OC2` [Example 128, (R)-3-(5-cyclopropyl-2-fluorophenyl)-1-isopropyl-N-(3-methyl-1,1-dioxidothietan-3-yl)-1,4,6,7-tetrahydropyrano[4,3-c]pyrazole-6-carboxamide] the figure was 320 nM.

The same test, now with this note: unit given as nm; hDGAT2 Sf-9 membrane prep; 13C18-triolein product by LC/MS/MS.
Turning to `CC1(NC(=O)[C@@H]2CCc3c(-c4cc(OC(F)F)ccc4F)nn(S(C)(=O)=O)c3C2)CS(=O)(=O)C1` [Example 115, (R)-3-(5-(difluoromethoxy)-2-fluorophenyl)-N-(3-methyl-1,1-dioxidothietan-3-yl)-1-(methylsulfonyl)-4,5,6,7-tetrahydro-1H-indazole-6-carboxamide], the IC50 is 108 nM.
Compound `CC1(NC(=O)C2Cc3c(c(-c4cccc(OC(F)F)c4)nn3C3CCOCC3)C(F)(F)C2)CCS(=O)(=O)C1` (centres unmarked) [Example 117, 3-(3-(difluoromethoxy)phenyl)-4,4-difluoro-N-(3-methyl-1,1-dioxidotetrahydrothiophen-3-yl)-1-(tetrahydro-2H-pyran-4-yl)-4,5,6,7-tetrahydro-1H-indazole-6-carboxamide] showed an IC50 of 499 nM.
Same read-out and setting: in the case of `CC1(NC(=O)C2COc3c(-c4cccc(OC(F)F)c4)nn(-c4ccc(F)cn4)c3C2)CCS(=O)(=O)C1` (centres unmarked) [Example 118, 3-(3-(difluoromethoxy)phenyl)-1-(5-fluoropyridin-2-yl)-N-(3-methyl-1,1-dioxidotetrahydrothiophen-3-yl)-1,5,6,7-tetrahydropyrano[3,2-c]pyrazole-6-carboxamide] it was 0.44 nM.
